Laboratory results: patent US11746116B2, “Antibiotic resistance breakers” (KING'S COLLEGE LONDON, priority 2017, dated 2023)
Values joined by “and” are separate entries in the source; they are usually repeats but may differ in a detail not shown here. Identical values can stand only once.

What was measured:
[1] = tested on: Staphylococcus aureus ATCC29213; assay: Murine thigh infection model, thigh bacterial burden; assay type: in vivo; settings: neutropenic mice; for Log10 reduction from vehicle control / Thigh bacterial burden, Group Geometric mean / Thigh bacterial burden, Log10 Group Geometric mean: 8 h, 14 h post-infection, 18 h post infection; for decrease of thigh bacterial burden compared to vehicle group: 8 h and 14 h post infection, burden 18 h post infection
[2] = thigh infection study, treated groups, relative to day of infection

C[C@H]1COc2c(N3CC[C@@H](Nc4ncccn4)C3)c(F)cc3c(=O)c(C(=O)O)cn1c23 [KSN-82-L22]
Log10 reduction from vehicle control ([1]; 20 mg/kg PO at 2 h): 5.00 log10 CFU/g
Thigh bacterial burden, Group Geometric mean ([1]; 20 mg/kg PO at 2 h): 2.01 × 10^3 cfu/g
Thigh bacterial burden, Log10 Group Geometric mean ([1]; 20 mg/kg PO at 2 h): 3.30 log10 cfu/g
Log10 reduction from vehicle control ([1]; 50 mg/kg PO at 2 h): 5.16 log10 CFU/g
Thigh bacterial burden, Group Geometric mean ([1]; 50 mg/kg PO at 2 h): 1.37 × 10^3 cfu/g
Thigh bacterial burden, Log10 Group Geometric mean ([1]; 50 mg/kg PO at 2 h): 3.14 log10 cfu/g
decrease of thigh bacterial burden compared to vehicle group ([1]; 20 mg/kg/dose oral at 2 h, 20 mg/kg): 5 log10 CFU/g and > 5 log10 CFU/g
decrease of thigh bacterial burden compared to vehicle group ([1]; 50 mg/kg/dose oral at 2 h, 50 mg/kg): 5.16 log10 CFU/g and > 5 log10 CFU/g
body weights following infection [2]: slightly increased
